Here are results for 23 compounds from ChEMBL document CHEMBL1909046, “DrugMatrix in vitro pharmacology data”.

For assay [1], the target named is T1, Alpha-1A adrenergic receptor (Rattus norvegicus, UniProt P43140).
T1 sequence (P43140 whole entry): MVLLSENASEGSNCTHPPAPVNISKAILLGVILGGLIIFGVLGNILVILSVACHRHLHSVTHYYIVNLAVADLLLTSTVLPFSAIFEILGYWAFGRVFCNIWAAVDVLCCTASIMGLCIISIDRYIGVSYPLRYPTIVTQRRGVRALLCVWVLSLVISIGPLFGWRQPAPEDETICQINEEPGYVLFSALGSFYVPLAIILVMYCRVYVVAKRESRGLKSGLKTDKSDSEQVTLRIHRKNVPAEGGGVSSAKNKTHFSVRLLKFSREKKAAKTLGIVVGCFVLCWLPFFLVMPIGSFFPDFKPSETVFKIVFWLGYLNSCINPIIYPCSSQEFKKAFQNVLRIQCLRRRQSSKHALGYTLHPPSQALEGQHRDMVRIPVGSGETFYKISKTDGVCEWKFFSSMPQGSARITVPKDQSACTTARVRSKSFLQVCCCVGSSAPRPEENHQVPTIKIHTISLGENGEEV
Briefly: DRUGMATRIX: Alpha-1A adrenergic receptor radioligand binding (ligand: prazosin). The class given is cell membranes, Wistar, Submaxillary gland, Membrane. The settings on record: Not Active = under 50% inhibition at 10 µM.

A short description of assay [2]: DRUGMATRIX: Nicotinic Acetylcholine radioligand binding (ligand: [125I] Epibatidine). The class given is cell membranes, Membrane. The note with it: imr-32; Not Active = under 50% inhibition at 10 µM.
The target in assay [3] is Mitogen-activated protein kinase 14 (Homo sapiens, UniProt Q16539). On the set-up: species or system Escherichia coli.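 Note: inhibition of p38alpha enzyme activity in a biochemical kinase assay, with myelin basic protein serving as substrate; in other assays of this panel Not Active means under 50% inhibition at 10 µM.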
Assay [4] concerns the target Insulin receptor (Rattus norvegicus, UniProt P15127). The class given is cell membranes, Wistar, Liver, Membrane. Note: in other assays of this panel Not Active means under 50% inhibition at 10 µM.
Assay [5] concerns the target T2, Substance-K receptor (Homo sapiens, UniProt P21452). Note: in other assays of this panel Not Active means under 50% inhibition at 10 µM.
T2 sequence (P21452 whole entry): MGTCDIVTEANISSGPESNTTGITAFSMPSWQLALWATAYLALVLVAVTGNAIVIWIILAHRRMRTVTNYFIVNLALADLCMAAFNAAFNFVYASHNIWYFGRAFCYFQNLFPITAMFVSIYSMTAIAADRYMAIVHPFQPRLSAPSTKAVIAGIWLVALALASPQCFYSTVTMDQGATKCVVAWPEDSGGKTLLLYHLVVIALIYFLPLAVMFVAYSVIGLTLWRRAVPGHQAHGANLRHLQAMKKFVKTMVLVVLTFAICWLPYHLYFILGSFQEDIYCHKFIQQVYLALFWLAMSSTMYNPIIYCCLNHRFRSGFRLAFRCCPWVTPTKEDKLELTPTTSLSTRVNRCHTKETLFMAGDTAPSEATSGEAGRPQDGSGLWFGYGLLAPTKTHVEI
The class given is cell membranes, CHO, Membrane.

Assay [6] addresses Melanocortin receptor 3 (Homo sapiens, UniProt P41968). The class given is cell membranes, HEK293, Membrane.

Sequence of Melanocortin receptor 3 (P41968 whole entry): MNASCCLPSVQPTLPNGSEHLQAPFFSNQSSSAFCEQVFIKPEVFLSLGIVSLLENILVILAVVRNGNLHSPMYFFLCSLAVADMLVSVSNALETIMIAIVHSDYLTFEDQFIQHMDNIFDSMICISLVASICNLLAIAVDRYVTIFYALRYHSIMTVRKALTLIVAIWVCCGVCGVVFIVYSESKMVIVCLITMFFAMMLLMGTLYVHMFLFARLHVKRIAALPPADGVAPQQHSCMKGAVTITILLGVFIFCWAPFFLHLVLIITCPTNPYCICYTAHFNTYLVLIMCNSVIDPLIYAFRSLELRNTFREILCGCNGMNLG
Sequence of Insulin receptor (P15127 27-759 limits assumed): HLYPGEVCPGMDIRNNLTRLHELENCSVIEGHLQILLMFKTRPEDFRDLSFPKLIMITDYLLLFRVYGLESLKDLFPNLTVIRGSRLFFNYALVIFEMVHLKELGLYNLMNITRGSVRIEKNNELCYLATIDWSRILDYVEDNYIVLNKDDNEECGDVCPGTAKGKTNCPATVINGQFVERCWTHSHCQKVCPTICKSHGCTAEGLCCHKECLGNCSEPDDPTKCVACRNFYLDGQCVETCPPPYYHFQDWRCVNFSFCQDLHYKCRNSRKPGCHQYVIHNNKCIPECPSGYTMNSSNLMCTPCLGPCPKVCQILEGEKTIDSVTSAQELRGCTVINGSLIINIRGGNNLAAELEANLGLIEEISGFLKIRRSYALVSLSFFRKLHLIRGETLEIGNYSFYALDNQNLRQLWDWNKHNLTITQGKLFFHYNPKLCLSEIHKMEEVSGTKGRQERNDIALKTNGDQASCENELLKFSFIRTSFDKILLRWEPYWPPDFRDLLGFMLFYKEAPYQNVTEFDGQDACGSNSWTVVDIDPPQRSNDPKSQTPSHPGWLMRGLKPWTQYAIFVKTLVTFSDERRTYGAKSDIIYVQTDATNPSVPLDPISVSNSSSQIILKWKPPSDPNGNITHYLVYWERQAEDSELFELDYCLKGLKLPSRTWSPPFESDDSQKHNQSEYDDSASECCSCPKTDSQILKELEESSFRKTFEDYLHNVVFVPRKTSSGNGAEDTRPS
Sequence of Insulin receptor (P15127 764-1383 limits assumed): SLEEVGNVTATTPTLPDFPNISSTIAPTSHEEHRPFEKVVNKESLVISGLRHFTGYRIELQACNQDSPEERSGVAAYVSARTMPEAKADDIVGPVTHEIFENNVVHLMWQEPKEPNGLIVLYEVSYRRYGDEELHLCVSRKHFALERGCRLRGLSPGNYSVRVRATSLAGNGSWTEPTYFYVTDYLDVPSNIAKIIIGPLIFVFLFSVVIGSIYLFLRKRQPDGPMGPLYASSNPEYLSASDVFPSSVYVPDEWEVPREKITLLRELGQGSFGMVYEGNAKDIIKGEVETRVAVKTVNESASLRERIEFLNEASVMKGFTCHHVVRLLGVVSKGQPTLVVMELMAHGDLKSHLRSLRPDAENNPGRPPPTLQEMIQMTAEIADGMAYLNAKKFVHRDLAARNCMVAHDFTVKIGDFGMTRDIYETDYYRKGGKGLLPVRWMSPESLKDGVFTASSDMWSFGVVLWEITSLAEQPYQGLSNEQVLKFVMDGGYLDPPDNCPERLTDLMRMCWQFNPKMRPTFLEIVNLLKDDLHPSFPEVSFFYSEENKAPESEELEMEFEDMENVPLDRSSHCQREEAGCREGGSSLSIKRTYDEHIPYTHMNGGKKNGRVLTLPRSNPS
Sequence of Mitogen-activated protein kinase 14 (Q16539 whole entry): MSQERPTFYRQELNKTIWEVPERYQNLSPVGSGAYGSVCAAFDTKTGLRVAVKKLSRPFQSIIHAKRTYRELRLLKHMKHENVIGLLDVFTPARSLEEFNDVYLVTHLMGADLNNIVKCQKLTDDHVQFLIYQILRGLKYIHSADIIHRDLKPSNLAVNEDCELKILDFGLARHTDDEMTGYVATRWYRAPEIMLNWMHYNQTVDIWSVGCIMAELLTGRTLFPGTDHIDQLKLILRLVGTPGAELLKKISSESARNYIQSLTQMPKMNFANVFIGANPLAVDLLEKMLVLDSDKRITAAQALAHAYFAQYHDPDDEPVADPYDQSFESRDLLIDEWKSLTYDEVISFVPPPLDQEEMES

For orientation: IC50 means the concentration at which inhibition is half-maximal. For orientation: Ki means the equilibrium dissociation constant of an inhibitor or competing ligand from its target. As for `Cc1cnc(NC(=O)C2=C(O)c3ccccc3S(=O)(=O)N2C)s1` [MELOXICAM], the IC50 entry in assay [1], in assay [2], in assay [3], in assay [4], in assay [5] (cho) and in assay [6] (hek293) was “Not Active” each time. The Ki result in assay [2] is “Not Active”.
As for `Nc1nc(N)c2nc(-c3ccccc3)c(N)nc2n1`, the IC50 entry in assay [1], in assay [2], in assay [3], in assay [4], in assay [5] (cho) and in assay [6] (hek293) was “Not Active” in each case. Moreover, the inhibition constant (Ki) result in assay [2] is listed as “Not Active”.
On to `CC(C)(C)NC[C@H](O)COc1cccc2c1CCCC2=O` [LEVOBUNOLOL], for which the IC50 entry in assay [1], in assay [2], in assay [3], in assay [4], in assay [5] (cho) and in assay [6] (hek293) was “Not Active” in each case. Also, in assay [2], the inhibition constant Ki entry is recorded as “Not Active”.
`Cc1[nH]c(=O)c(C#N)cc1-c1ccncc1` [MILRINONE]: the concentration for half-maximal inhibition (IC50) result in assay [1], in assay [2], in assay [3], in assay [4], in assay [5] (cho) and in assay [6] (hek293) was “Not Active” in each case. The inhibitory constant (Ki) entry in assay [2] was “Not Active”.
In the case of `Cc1cn([C@H]2C=C[C@@H](CO)O2)c(=O)[nH]c1=O` [STAVUDINE], the IC50 entry in assay [1], in assay [2], in assay [3], in assay [4], in assay [5] (cho) and in assay [6] (hek293) was “Not Active” in each case. Besides, the Ki entry in assay [2] is “Not Active”.
On to `CCOc1cc(N)c(Cl)cc1C(=O)NCC1CN(Cc2ccc(F)cc2)CCO1` (stereo not drawn) [MOSAPRIDE], for which the 50% inhibitory concentration (IC50) result in assay [1], in assay [2], in assay [3], in assay [4], in assay [5] (cho) and in assay [6] (hek293) was “Not Active” each time. In assay [2], the Ki result is “Not Active”.
Consider `C#C[C@]1(O)CC[C@H]2[C@@H]3[C@H](C)CC4=C(CCC(=O)C4)[C@H]3CC[C@@]21C` [TIBOLONE], for which the IC50 entry in assay [1], in assay [2], in assay [3], in assay [4], in assay [5] (cho) and in assay [6] (hek293) was “Not Active” in each case. Further, the Ki entry in assay [2] is recorded as “Not Active”.
As to `CC[C@H](C)[C@@H](CO[C@@H](Cc1ccccc1)C(=O)N[C@@H](CCS(C)(=O)=O)C(=O)OC(C)C)NC[C@@H](N)CS`, the IC50 result was “Not Active” in assay [1]; “Not Active” in assay [2]; “Not Active” in assay [3]; “Not Active” in assay [4]; 1610 nM in assay [5] (read-out: IC50); 3390 nM in assay [6] (read-out: IC50). In addition, the figures for the Ki result in assay [2], in assay [5] (read-out: Ki) and in assay [6] (read-out: Ki) were “Not Active”, 536 nM and 2960 nM, respectively.
In the case of `OC[C@@H](O)[C@@H](O)[C@H](O)[C@H](O)CO` [MANNITOL], the IC50 entry in assay [1], in assay [2], in assay [3], in assay [4], in assay [5] (cho) and in assay [6] (hek293) was “Not Active” in each case. For the same compound, the Ki result in assay [2] was “Not Active”.
As for `O=[As][O-].[Na+]` [SODIUM ARSENITE], the IC50 entry in assay [1], in assay [2], in assay [3], in assay [4], in assay [5] (cho) and in assay [6] (hek293) was “Not Active” each time. In assay [2], the Ki result is given as “Not Active”.
For `Cc1cc2c(s1)Nc1ccccc1N=C2N1CCN(C)CC1` [OLANZAPINE], the IC50 result in assay [3], in assay [4], in assay [5] (cho) and in assay [6] (hek293) was “Not Active” throughout.
As to `Cc1ccc(Cl)c(Nc2ccccc2C(=O)O)c1Cl` [MECLOFENAMIC ACID], the IC50 entry in assay [1], in assay [2], in assay [3], in assay [4], in assay [5] (cho) and in assay [6] (hek293) was “Not Active” throughout. In addition, the inhibition constant Ki entry in assay [2] was “Not Active”.
In the case of `CCOC(=O)C1=C(C)NC(C)=C(C(=O)OCC)C1c1ccccc1/C=C/C(=O)OC(C)(C)C` [LACIDIPINE], the half-inhibitory concentration (IC50) entry in assay [1], in assay [2], in assay [3], in assay [4], in assay [5] (cho) and in assay [6] (hek293) was “Not Active” in each case. For the same compound, the inhibitory constant (Ki) result in assay [2] was “Not Active”.
As to `CNCCCC12CCC(c3ccccc31)c1ccccc12` [MAPROTILINE], the concentration for half-maximal inhibition (IC50) in assay [1] (read-out: IC50) was 567 nM; in assay [3], “Not Active”; in assay [4] it was “Not Active”; in assay [5] (cho), “Not Active”; in assay [6] (hek293) it was “Not Active”. Also, in assay [1] (read-out: Ki), the Ki turned out to be 230 nM.
With `O=C(c1ccccc1)c1ccc2n1CCC2C(=O)O` (stereo not drawn) [KETOROLAC], the concentration for half-maximal inhibition (IC50) entry in assay [1], in assay [2], in assay [3], in assay [4], in assay [5] (cho) and in assay [6] (hek293) was “Not Active” each time. In addition, in assay [2], the Ki entry is “Not Active”.
As for `CCN(CC)N=O` [N-NITROSODIETHYLAMINE], the IC50 result in assay [1], in assay [2], in assay [3], in assay [4], in assay [5] (cho) and in assay [6] (hek293) was “Not Active” each time. In addition, in assay [2], the Ki result is “Not Active”.
On to `CO[C@@]12[C@H](COC(N)=O)C3=C(C(=O)C(C)=C(N)C3=O)N1C[C@@H]1N[C@@H]12` [MITOMYCIN], for which the IC50 entry in assay [1], in assay [2], in assay [3], in assay [4], in assay [5] (cho) and in assay [6] (hek293) was “Not Active” each time. In assay [2], the Ki result is recorded as “Not Active”.
For the compound `Cc1ccc(S(=O)(=O)NC(=O)NN2CCCCCC2)cc1` [TOLAZAMIDE], the half-maximal inhibitory concentration (IC50) result in assay [1], in assay [2], in assay [3], in assay [4], in assay [5] (cho) and in assay [6] (hek293) was “Not Active” each time. In addition, the Ki result in assay [2] was “Not Active”.
As to `CCC(C)(C)C(=O)O[C@H]1C[C@@H](C)C=C2C=C[C@H](C)[C@H](CC[C@@H]3C[C@@H](O)CC(=O)O3)[C@H]21` [SIMVASTATIN], the IC50 entry in assay [1], in assay [2], in assay [3], in assay [4], in assay [5] (cho) and in assay [6] (hek293) was “Not Active” throughout. Further, the Ki entry in assay [2] is recorded as “Not Active”.
For LEAD(IV) ACETATE, the IC50 result in assay [1], in assay [2], in assay [3], in assay [4], in assay [5] (cho) and in assay [6] (hek293) was “Not Active” throughout. The Ki result in assay [1], in assay [2], in assay [3], in assay [4], in assay [5] (cho) and in assay [6] (hek293) was “Not Active” throughout.
In the case of `CCN1CCCC1CNC(=O)c1cc(S(N)(=O)=O)ccc1OC` (stereo not drawn) [SULPIRIDE], the half-inhibitory concentration (IC50) entry in assay [1], in assay [2], in assay [3], in assay [4], in assay [5] (cho) and in assay [6] (hek293) was “Not Active” throughout. Also, the Ki result in assay [2] is given as “Not Active”.
For `CC[C@H](C)C(=O)O[C@H]1CCC=C2C=C[C@H](C)[C@H](CC[C@@H]3C[C@@H](O)CC(=O)O3)[C@H]21` [MEVASTATIN], the half-inhibitory concentration (IC50) result in assay [1], in assay [2], in assay [3], in assay [4], in assay [5] (cho) and in assay [6] (hek293) was “Not Active” each time. Further, in assay [2], the Ki entry is on record as “Not Active”.
As for `CN(C)CCC=C1c2ccccc2COc2ccccc21` [DOXEPIN], the IC50 in assay [1] (read-out: IC50) was 107 nM; in assay [3], “Not Active”; in assay [4], “Not Active”; in assay [5] (cho) it was “Not Active”; in assay [6] (hek293) it was “Not Active”. For the same compound, in assay [1] (read-out: Ki), the Ki came to 43 nM.
